In ChEMBL document CHEMBL4406890, “Discovery of a novel bicyclic compound, DS54360155, as an orally potent analgesic without mu-opioid receptor agonist activity” (Bioorg Med Chem Lett, 2019):

Tests used:
Mus musculus [1] = assay: Analgesic activity in ddY mouse assessed as reduction in total time spent in paw licking and biting during initial phase at 30 mg/kg, po pretreated for 30 mins followed by formalin challenge and measured for 15 mins post formalin challenge by formalin test relative to control; format: functional
hERG (KCNH2) = hERG (KCNH2) (Homo sapiens, UniProt Q12809); assay: Inhibition of human ERG at 10 uM relative to control
Mus musculus [2] = assay: Analgesic activity in ddY mouse model of acetic acid-induced writhing assessed as inhibition of writhing numbers at 30 mg/kg, po pretreated for 30 mins followed by acetic acid challenge and measured for 25 mins relative to control; format: functional
[3] = Metabolic stability in CD1 mouse liver microsomes assessed as parent compound remaining incubated for 0.5 hrs in presence of beta-NADP by LC-MS/MS analysis; format: ADME, Microsome; conditions: read-out: Stability
Mus musculus [4] = assay: Analgesic activity in oral dosed ddY mouse model of acetic acid-induced writhing pretreated for 30 mins followed by acetic acid challenge and measured for 25 mins; format: functional
Mu-type opioid receptor [5] = biological target: T1, Mu-type opioid receptor (Homo sapiens, UniProt P35372); assay: Agonist activity at human mu opioid receptor expressed in CHOK1 cells assessed as inhibition of forskolin-induced cAMP production by FRET assay; format: cell-based
[6] = 1-Octanol/phosphate buffered-saline distribution coefficient, logD of compound at pH 7.4; format: physicochemical
[7] = Volume of distribution in ddY mouse at 1 mg/kg, iv measured after 3 mins by LC-MS/MS analysis; format: ADME, organism-based; conditions: in vivo
Mu-type opioid receptor [8] = biological target: T1, Mu-type opioid receptor; assay: Agonist activity at human mu opioid receptor expressed in CHOK1 cells assessed as inhibition of forskolin-induced cAMP production by FRET assay relative to DAMGO; format: cell-based
Mu-type opioid receptor [9] = biological target: T1, Mu-type opioid receptor; assay: Displacement of [3H]-diprenorphin from human mu opioid receptor incubated for 1 hr; format: ADME
[10] = Half-life in ddY mouse at 10 mg/kg, po measured after 3 mins by LC-MS/MS analysis; format: ADME, organism-based; conditions: in vivo
[11] = AUC in ddY mouse at 10 mg/kg, po measured after 3 mins by LC-MS/MS analysis; format: ADME, organism-based; design: time < 0.05 hr, dose 10 mg/kg, route oral; conditions: in vivo
Mus musculus [12] = assay: Analgesic activity in ddY mouse model of acetic acid-induced writhing assessed as inhibition of writhing numbers at 3 mg/kg, po pretreated for 30 mins followed by acetic acid challenge and measured for 25 mins relative to control; format: functional
Mus musculus [13] = assay: Analgesic activity in ddY mouse model of acetic acid-induced writhing assessed as inhibition of writhing numbers at 10 mg/kg, po pretreated for 30 mins followed by acetic acid challenge and measured for 25 mins relative to control; format: functional
[14] = Cmax in ddY mouse at 10 mg/kg, po measured after 3 mins by LC-MS/MS analysis; format: ADME, organism-based; design: dose 10 mg/kg, route oral; conditions: in vivo
[15] = Clearance in ddY mouse at 1 mg/kg, iv measured after 3 mins by LC-MS/MS analysis; format: ADME, organism-based; conditions: in vivo

T1 sequence (P35372 whole entry): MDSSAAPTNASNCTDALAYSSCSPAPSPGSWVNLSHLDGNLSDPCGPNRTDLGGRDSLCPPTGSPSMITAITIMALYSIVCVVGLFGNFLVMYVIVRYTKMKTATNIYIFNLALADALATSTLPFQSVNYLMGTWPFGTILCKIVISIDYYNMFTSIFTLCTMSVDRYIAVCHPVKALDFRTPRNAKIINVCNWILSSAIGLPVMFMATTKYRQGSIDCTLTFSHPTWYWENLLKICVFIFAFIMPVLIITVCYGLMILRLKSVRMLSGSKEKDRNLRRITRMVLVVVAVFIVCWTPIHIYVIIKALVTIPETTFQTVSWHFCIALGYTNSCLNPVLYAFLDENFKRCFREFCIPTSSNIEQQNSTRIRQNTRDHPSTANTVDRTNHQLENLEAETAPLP
hERG (KCNH2), sequence (Q12809 whole entry): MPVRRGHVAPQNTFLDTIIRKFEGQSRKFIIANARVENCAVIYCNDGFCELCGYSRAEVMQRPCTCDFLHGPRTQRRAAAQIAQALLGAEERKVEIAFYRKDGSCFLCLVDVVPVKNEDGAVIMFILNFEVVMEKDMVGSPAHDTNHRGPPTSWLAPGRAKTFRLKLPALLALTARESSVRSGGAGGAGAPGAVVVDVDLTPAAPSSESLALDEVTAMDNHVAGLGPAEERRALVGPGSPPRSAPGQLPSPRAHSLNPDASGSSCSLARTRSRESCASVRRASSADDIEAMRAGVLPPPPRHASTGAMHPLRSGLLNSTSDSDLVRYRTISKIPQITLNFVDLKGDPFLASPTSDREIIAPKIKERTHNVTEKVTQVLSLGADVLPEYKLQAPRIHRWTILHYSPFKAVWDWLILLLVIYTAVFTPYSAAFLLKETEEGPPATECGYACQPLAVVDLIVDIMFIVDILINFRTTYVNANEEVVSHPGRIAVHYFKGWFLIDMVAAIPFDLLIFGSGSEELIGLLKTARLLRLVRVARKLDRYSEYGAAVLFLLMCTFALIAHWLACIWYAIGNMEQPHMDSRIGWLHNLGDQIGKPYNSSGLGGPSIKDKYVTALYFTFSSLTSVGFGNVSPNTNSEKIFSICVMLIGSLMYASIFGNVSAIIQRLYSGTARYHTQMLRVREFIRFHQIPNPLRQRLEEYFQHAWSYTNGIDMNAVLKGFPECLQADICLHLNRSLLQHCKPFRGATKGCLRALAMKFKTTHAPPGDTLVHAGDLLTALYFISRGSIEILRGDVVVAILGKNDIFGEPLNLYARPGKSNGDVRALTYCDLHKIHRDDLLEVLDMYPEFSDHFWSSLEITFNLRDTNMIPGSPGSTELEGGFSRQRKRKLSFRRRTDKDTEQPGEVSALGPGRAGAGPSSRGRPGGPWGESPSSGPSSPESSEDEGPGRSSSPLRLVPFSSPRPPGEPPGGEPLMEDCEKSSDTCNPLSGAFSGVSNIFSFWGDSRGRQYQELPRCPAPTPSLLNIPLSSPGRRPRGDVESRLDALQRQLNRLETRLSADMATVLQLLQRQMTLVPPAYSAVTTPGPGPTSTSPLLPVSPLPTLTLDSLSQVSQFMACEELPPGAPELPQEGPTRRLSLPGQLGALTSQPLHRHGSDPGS

| SMILES | inhibition in vivo at 30 mg/kg (Mus musculus [1]) [%] | inhibition at 10 µM (hERG (KCNH2)) [%] | inhibition in vivo at 30 mg/kg (Mus musculus [2]) [%] | remaining at 0.5 h [3] [%] | ED50 (Mus musculus [4]) [mg/kg] | EC50 (Mu-type opioid receptor [5]) [µM] | logD [6] | Vd [7] [L/kg] | Emax (Mu-type opioid receptor [8]) [%] | IC50 (Mu-type opioid receptor [9]) [µM] | half-life [10] [min] | AUC at 0.05 h [11] [µM·h] | inhibition in vivo at 3 mg/kg (Mus musculus [12]) [%] | inhibition in vivo at 10 mg/kg (Mus musculus [13]) [%] | Cmax [14] [nM] | clearance [15] [mL/min/kg] |
| --- | --- | --- | --- | --- | --- | --- | --- | --- | --- | --- | --- | --- | --- | --- | --- | --- |
| C/C=C1/CN2CC[C@H]1C(=O)c1[nH]c3ccccc3c1C2.O=S(=O)(O)O | 43 | 63 | 49 | 34 | 32 | > 100 | – | – | – | – | – | – | – | – | – | – |
| CN1C(=O)c2[nH]c3ccccc3c2CN2CC[C@H]1C2.O=S(=O)(O)O | 83 | 14 | 95 | 99 | 12 | > 100 | 0.7 | 1.72 | 19 | > 100 | 136 | 5.8 | 19 | 23 | 2150 | 24.9 |
| CN1C(=O)c2[nH]c3ccccc3c2CN2CCC[C@H]1C2 | – | 38 | 77 | 74 | 23 | – | 1 | – | – | – | 131 | 1.59 | – | – | 720 | – |
| CN1C(=O)c2[nH]c3ccccc3c2CN2CC[C@@H]1C2.O=S(=O)(O)O | 30 | 23 | 49 | > 100 | 27 | > 100 | 0.7 | 1.14 | 18 | > 100 | 151 | 12.2 | – | – | 2990 | 12.9 |
| CCN1CCCC(=O)c2[nH]c3ccccc3c2C1 | – | 73 | 36 | 49 | – | – | 1.3 | – | – | – | – | – | – | – | – | – |
| CN1C(=O)c2[nH]c3ccccc3c2CN2CCC[C@@H]1C2 | – | – | 65 | 82 | – | – | 0.9 | – | – | – | – | – | – | – | – | – |
| CN1CCCC(=O)c2[nH]c3ccccc3c2C1 | – | 50 | 31 | 53 | – | – | 1.1 | – | – | – | – | – | – | – | – | – |
| CC12CCCN(CC1)Cc1c([nH]c3ccccc13)C2=O (racemic) | – | 88 | 21 | 91 | – | – | 1.5 | – | – | – | – | – | – | – | – | – |
| CN1C(=O)c2[nH]c3ccccc3c2CN2CCC1(C)C2 (racemic) | – | 36 | 37 | 93 | – | – | 0.7 | – | – | – | – | – | – | – | – | – |
| O=C1c2[nH]c3ccccc3c2CN2CCC3(CCCN13)C2 (racemic) | – | 13 | 47 | 82 | – | – | 1.2 | – | – | – | – | – | – | – | – | – |
| CCCN1C(=O)c2[nH]c3ccccc3c2CN2CCC1C2 (racemic) | – | 43 | 44 | 72 | – | – | 1.6 | – | – | – | – | – | – | – | – | – |
| O=C1c2[nH]c3ccccc3c2CN2CCC(C2)N1C1CC1 (racemic) | – | 19 | 55 | 92 | – | – | 1.1 | – | – | – | – | – | – | – | – | – |
| CN1C(=O)c2[nH]c3ccccc3c2CN2CCC1C2.O=S(=O)(O)O (racemic) | – | 26 | 83 | > 100 | 21 | – | 0.7 | – | – | – | 101 | 3.29 | – | – | 1460 | – |
| CCN1C(=O)c2[nH]c3ccccc3c2CN2CCC1C2 (racemic) | – | 14 | 43 | 91 | – | – | 1.1 | – | – | – | – | – | – | – | – | – |
